# What was measured:
# Assay in all cases: β-arrestin based GPCR screen (PathHunter / GPCRmax), antagonist mode
# 168 GPCRs [1] = molecular target: 168 GPCRs (Homo sapiens, UniProt P21462)
# 168 GPCRs [2] = molecular target: 168 GPCRs (Homo sapiens, UniProt P49682)
# 168 GPCRs [3] = molecular target: 168 GPCRs (Homo sapiens, UniProt P35368); settings: ADRA1B, Antagonist
# 168 GPCRs [4] = molecular target: 168 GPCRs (Homo sapiens, UniProt P22888); settings: LHCGR
# 168 GPCRs [5] = molecular target: 168 GPCRs (Homo sapiens, UniProt Q16581); settings: C3AR1, Antagonist
# 168 GPCRs [6] = molecular target: 168 GPCRs (Homo sapiens, UniProt Q16602); settings: Antagonist
# 168 GPCRs [7] = molecular target: 168 GPCRs (Homo sapiens, UniProt P25025)
# 168 GPCRs [8] = molecular target: 168 GPCRs (Homo sapiens, UniProt Q9H3N8)
# 168 GPCRs [9] = molecular target: 168 GPCRs (Homo sapiens, UniProt Q99788); settings: CMKLR1, Antagonist
# 168 GPCRs [10] = molecular target: 168 GPCRs (Homo sapiens, UniProt P41597); settings: CCR2, Antagonist
# 168 GPCRs [11] = molecular target: 168 GPCRs (Homo sapiens, UniProt P41146)
# 168 GPCRs [12] = molecular target: T1, 168 GPCRs (Homo sapiens, UniProt P32247); settings: BRS3, Antagonist
# T1 sequence (P32247 1-399): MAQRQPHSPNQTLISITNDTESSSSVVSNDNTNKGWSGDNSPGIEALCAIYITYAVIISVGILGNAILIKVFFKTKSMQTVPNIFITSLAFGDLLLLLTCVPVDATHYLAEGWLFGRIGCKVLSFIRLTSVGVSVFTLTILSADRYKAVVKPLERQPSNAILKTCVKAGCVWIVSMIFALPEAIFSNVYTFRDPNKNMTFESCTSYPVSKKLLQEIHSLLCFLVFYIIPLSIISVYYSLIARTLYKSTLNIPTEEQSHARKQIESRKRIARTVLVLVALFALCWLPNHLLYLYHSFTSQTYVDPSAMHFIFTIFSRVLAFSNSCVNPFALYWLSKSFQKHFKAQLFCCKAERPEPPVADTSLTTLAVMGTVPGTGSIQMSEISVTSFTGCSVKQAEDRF
# 168 GPCRs [13] = molecular target: 168 GPCRs (Homo sapiens, UniProt P48546); settings: GIPR
# 168 GPCRs [14] = molecular target: T2, 168 GPCRs (Homo sapiens, UniProt Q5NUL3)
# T2 sequence (Q5NUL3 1-361): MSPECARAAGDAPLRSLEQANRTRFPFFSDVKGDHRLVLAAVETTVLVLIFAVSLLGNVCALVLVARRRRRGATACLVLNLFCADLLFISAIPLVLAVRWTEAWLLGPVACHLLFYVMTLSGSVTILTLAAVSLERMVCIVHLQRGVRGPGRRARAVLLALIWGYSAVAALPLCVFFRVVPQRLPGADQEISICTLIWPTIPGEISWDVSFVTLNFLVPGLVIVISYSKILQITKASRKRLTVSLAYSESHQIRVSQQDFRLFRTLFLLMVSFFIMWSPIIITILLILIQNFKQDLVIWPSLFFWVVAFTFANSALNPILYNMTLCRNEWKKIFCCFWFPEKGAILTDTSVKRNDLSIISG
# 168 GPCRs [15] = molecular target: 168 GPCRs (Homo sapiens, UniProt P30559); settings: OXTR
# 168 GPCRs [16] = molecular target: 168 GPCRs (Homo sapiens, UniProt Q8TDS4); settings: GPR109A
# 168 GPCRs [17] = molecular target: 168 GPCRs (Homo sapiens, UniProt P34981); settings: TRHR
# Chain of 168 GPCRs (Homo sapiens, UniProt P34981) (P34981 whole entry): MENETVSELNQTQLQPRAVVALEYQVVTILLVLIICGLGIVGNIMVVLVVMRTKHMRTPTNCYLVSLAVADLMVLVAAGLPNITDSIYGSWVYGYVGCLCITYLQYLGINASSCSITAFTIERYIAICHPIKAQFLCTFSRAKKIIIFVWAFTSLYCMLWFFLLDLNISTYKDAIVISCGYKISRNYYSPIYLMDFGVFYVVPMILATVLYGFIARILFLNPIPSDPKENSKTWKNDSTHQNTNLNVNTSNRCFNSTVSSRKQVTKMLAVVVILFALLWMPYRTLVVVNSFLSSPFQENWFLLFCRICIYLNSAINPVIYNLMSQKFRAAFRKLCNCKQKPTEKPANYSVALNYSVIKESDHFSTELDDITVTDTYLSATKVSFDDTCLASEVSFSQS
# Chain of 168 GPCRs (Homo sapiens, UniProt Q16602) (Q16602 23-461): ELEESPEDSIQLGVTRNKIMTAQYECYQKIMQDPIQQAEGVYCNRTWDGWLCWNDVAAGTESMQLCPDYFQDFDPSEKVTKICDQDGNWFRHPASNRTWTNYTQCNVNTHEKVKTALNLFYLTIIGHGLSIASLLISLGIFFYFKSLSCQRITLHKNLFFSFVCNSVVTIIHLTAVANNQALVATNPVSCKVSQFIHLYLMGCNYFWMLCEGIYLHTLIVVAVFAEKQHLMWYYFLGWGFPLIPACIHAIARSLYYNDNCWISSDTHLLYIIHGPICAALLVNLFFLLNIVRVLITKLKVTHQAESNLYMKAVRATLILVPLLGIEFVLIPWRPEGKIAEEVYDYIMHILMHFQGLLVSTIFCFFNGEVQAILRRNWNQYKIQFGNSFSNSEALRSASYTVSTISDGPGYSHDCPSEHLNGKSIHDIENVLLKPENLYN
# Chain of 168 GPCRs (Homo sapiens, UniProt P41146) (P41146 whole entry): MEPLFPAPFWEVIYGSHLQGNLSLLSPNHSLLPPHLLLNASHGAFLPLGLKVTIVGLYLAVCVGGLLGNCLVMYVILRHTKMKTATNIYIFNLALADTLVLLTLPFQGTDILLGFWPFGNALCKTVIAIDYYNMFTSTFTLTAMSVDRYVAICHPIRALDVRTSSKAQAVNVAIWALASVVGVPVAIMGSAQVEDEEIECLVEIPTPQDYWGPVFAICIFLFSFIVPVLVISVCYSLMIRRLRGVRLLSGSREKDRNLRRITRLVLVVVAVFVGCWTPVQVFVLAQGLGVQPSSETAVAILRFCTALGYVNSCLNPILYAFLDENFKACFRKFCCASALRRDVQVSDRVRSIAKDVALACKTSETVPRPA
# Chain of 168 GPCRs (Homo sapiens, UniProt P30559) (P30559 whole entry): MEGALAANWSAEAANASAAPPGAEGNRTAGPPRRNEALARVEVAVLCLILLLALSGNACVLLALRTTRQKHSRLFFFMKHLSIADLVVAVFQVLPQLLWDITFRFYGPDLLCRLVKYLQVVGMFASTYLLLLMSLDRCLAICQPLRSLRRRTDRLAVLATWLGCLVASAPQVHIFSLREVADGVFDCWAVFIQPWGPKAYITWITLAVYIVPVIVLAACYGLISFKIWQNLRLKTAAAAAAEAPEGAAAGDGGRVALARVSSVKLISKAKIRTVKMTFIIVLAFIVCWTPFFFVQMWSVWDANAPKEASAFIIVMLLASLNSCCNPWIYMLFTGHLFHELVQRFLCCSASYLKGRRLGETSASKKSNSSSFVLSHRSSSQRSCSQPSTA
# Chain of 168 GPCRs (Homo sapiens, UniProt P41597) (P41597 whole entry): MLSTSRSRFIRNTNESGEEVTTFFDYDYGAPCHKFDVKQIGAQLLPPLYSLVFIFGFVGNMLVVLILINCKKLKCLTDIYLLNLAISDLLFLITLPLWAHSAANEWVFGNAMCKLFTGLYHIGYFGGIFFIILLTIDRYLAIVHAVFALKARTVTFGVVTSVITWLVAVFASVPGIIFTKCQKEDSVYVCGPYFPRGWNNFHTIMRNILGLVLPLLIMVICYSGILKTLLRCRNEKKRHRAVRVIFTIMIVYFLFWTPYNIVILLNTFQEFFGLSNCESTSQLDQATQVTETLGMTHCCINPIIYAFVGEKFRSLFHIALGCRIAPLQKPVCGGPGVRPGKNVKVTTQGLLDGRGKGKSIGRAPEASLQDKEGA
# Chain of 168 GPCRs (Homo sapiens, UniProt P25025) (P25025 whole entry): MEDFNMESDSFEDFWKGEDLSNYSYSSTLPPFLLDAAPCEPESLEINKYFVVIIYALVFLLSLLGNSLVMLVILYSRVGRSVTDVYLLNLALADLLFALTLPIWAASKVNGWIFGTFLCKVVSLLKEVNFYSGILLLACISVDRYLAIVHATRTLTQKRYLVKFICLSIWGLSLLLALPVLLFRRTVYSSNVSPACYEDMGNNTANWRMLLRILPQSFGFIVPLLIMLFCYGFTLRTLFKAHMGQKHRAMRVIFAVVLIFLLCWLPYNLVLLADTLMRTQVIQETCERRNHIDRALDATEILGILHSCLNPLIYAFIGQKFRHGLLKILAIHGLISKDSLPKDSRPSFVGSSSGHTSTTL
# Chain of 168 GPCRs (Homo sapiens, UniProt Q8TDS4) (Q8TDS4 whole entry): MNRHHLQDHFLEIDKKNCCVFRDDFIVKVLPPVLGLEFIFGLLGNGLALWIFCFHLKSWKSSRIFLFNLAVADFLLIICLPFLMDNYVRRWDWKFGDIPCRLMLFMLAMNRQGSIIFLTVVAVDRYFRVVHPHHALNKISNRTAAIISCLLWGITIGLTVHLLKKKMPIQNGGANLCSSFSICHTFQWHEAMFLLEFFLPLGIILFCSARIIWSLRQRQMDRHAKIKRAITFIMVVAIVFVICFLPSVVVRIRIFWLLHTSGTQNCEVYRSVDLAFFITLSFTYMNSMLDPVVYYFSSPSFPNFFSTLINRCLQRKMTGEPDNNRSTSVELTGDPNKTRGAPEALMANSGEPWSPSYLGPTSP
# Chain of 168 GPCRs (Homo sapiens, UniProt Q9H3N8) (Q9H3N8 whole entry): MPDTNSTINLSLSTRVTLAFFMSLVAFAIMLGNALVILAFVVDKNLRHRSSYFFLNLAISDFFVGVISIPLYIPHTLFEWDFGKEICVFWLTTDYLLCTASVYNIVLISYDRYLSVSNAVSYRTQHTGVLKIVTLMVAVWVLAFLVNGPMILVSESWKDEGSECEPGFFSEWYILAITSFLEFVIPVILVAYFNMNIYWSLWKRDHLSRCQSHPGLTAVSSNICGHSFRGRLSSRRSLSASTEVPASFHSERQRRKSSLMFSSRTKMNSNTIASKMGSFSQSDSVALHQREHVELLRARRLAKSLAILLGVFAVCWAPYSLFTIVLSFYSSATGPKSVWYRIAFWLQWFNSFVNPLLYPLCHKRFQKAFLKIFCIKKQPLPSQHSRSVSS
# Chain of 168 GPCRs (Homo sapiens, UniProt P49682) (P49682 whole entry): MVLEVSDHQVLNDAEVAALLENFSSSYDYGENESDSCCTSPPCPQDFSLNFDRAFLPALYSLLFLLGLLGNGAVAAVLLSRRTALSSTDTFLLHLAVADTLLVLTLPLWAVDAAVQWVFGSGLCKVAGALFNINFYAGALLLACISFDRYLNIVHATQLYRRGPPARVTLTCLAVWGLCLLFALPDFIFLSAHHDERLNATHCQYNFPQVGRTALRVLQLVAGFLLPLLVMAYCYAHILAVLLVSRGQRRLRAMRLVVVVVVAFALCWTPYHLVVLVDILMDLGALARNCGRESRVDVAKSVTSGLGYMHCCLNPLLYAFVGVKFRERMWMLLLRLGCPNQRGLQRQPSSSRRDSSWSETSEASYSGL
# Chain of 168 GPCRs (Homo sapiens, UniProt P48546) (P48546 22-466): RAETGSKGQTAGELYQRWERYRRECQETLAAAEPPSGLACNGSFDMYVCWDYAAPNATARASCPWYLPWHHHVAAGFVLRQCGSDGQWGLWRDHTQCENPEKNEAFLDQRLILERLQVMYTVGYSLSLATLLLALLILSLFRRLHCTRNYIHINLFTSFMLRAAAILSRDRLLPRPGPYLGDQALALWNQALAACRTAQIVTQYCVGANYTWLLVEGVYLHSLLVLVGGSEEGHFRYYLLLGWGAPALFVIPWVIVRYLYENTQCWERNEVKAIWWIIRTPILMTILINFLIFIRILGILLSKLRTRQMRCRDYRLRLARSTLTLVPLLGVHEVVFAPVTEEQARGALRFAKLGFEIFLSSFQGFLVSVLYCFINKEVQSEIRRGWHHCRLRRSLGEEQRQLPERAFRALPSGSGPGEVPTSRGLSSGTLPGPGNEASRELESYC
# Chain of 168 GPCRs (Homo sapiens, UniProt Q99788) (Q99788 whole entry): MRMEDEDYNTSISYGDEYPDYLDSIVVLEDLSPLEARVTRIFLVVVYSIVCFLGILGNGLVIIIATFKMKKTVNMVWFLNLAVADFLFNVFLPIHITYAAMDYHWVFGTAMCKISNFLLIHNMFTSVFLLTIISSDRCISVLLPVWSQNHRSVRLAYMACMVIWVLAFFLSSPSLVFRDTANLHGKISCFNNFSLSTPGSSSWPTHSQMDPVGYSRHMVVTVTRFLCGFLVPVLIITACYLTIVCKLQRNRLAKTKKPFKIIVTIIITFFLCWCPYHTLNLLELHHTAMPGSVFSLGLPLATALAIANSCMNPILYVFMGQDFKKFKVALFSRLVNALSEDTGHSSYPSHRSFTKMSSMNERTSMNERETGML
# Chain of 168 GPCRs (Homo sapiens, UniProt P35368) (P35368 whole entry): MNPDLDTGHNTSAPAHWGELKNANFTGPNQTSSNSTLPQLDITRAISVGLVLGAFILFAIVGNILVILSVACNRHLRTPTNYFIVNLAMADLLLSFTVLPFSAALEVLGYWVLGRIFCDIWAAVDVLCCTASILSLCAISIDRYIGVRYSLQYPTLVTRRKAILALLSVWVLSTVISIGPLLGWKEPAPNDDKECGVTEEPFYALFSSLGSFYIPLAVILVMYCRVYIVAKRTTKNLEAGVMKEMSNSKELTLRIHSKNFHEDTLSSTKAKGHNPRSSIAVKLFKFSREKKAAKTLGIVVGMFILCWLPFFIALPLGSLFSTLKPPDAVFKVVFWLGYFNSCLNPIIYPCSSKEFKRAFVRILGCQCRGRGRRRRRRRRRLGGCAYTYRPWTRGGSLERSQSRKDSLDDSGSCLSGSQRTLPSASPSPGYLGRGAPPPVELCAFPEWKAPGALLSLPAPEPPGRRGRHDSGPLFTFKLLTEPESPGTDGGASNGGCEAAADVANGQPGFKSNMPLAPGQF
smiles,measurement,setting,value
"CNC(C)C(=O)c1ccc2c(c1)OCO2 (centres unmarked) [methylone, 3,4-methylenedioxy-N-methylcathinone]",activity at 10 µM,"168 GPCRs [1]; FPR1, Antagonist mode, 10 uM",-11.4%
same,activity at 1 µM,"168 GPCRs [1]; FPR1, Antagonist, 1 uM",-4.9%
same,activity at 10 µM,"168 GPCRs [2]; CXCR3, Antagonist mode, 10 uM",-3.9%
same,activity at 1 µM,"168 GPCRs [2]; CXCR3, Antagonist, 1 uM",4.5%
same,activity at 1 µM,168 GPCRs [3]; 1 uM,17.9%
same,activity at 10 µM,168 GPCRs [3]; 10 uM,20.6%
same,activity at 10 µM,"168 GPCRs [4]; Antagonist mode, 10 uM",11.2%
same,activity at 1 µM,"168 GPCRs [4]; Antagonist, 1 uM",13.8%
same,activity at 1 µM,168 GPCRs [5]; 1 uM,2.5%
same,activity at 10 µM,168 GPCRs [5]; 10 uM,0.3%
same,activity at 1 µM,168 GPCRs [6]; CALCRL-RAMP1,4.7%
same,activity at 10 µM,168 GPCRs [6]; CALCRL-RAMP1,7%
same,activity at 1 µM,168 GPCRs [6]; CALCRL-RAMP2,19.1%
same,activity at 10 µM,168 GPCRs [6]; CALCRL-RAMP2,7%
same,activity at 1 µM,168 GPCRs [6]; CALCRL-RAMP3,-18.5%
same,activity at 10 µM,168 GPCRs [6]; CALCRL-RAMP3,-7.5%
same,activity at 10 µM,"168 GPCRs [7]; CXCR2, Antagonist mode, 10 uM",-1%
same,activity at 1 µM,"168 GPCRs [7]; CXCR2, Antagonist, 1 uM",-7.6%
same,activity at 10 µM,"168 GPCRs [8]; HRH4, Antagonist mode, 10 uM",-14%
same,activity at 1 µM,"168 GPCRs [8]; HRH4, Antagonist, 1 uM",-11.6%
same,activity at 1 µM,168 GPCRs [9]; 1 uM,-0.2%
same,activity at 10 µM,168 GPCRs [9]; 10 uM,-5.6%
same,activity at 1 µM,168 GPCRs [10]; 1 uM,2%
same,activity at 10 µM,168 GPCRs [10]; 10 uM,4.9%
same,activity at 10 µM,"168 GPCRs [11]; OPRL1, Antagonist mode, 10 uM",13.2%
same,activity at 1 µM,"168 GPCRs [11]; OPRL1, Antagonist, 1 uM",17.1%
same,activity at 1 µM,168 GPCRs [12]; 1 uM,18.3%
same,activity at 10 µM,168 GPCRs [12]; 10 uM,10.1%
same,activity at 10 µM,"168 GPCRs [13]; Antagonist mode, 10 uM",-5.1%
same,activity at 1 µM,"168 GPCRs [13]; Antagonist, 1 uM",-1%
same,activity at 10 µM,"168 GPCRs [14]; GPR120, Antagonist mode, 10 uM",40.3%
same,activity at 1 µM,"168 GPCRs [14]; GPR120, Antagonist, 1 uM",46.5%
same,activity at 10 µM,"168 GPCRs [15]; Antagonist mode, 10 uM",6.9%
same,activity at 1 µM,"168 GPCRs [15]; Antagonist, 1 uM",12.7%
same,activity at 10 µM,"168 GPCRs [16]; Antagonist mode, 10 uM",-0.3%
same,activity at 1 µM,"168 GPCRs [16]; Antagonist, 1 uM",1.4%
same,activity at 10 µM,"168 GPCRs [17]; Antagonist mode, 10 uM",2.8%
same,activity at 1 µM,"168 GPCRs [17]; Antagonist, 1 uM",-7.2%

# Source: patent US12343326B2, “Psychoactive medicines and their use for treating psychiatric and neurological conditions and disorders” (Transcend Therapeutics, Inc., priority 2021, dated 2025)
